Measured values from patent US20250387351A1 (SpringWorks Therapeutics, Inc, priority 2024, published 2025).

Legend:
[1] = Pharmacokinetic parameters and characteristics of mirdametinib (Table A); format: in vivo, human
[2] = tested on: NF1-associated inoperable plexiform neurofibromas (PNs); test: Phase 2b trial: response of target PN by BICR volumetric MRI per REiNS criteria; format: in vivo, human; conditions: for Confirmed Objective Response Rate per REiNS criteria by BICR, n (%): 24-cycle treatment phase, BSA-based BID dose, 3 weeks on/1 week off; for Confirmed Partial Response, n (%): PR = ≥20% reduction in PN volume; for DoR ≥12 months: Kaplan-Meier based, data cut-off September 2023
Protocol: Participants were screened (assessed for eligibility as described below). […] The median age was 34.5 years (range 18 to 69 years); 85% were white and 64% were female. […] The most commonly reported morbidities were pain (90%) and disfigurement or major deformity (52%).
The median age was 10 years (range 2 to 17 years); 66% were white and 54% were female. […] The most commonly reported morbidities were pain (70%) and disfigurement or major deformity (50%).
Study treatment was administered orally at a twice daily (BID) dose specified in the table below. Dosing was on a 28-day Cycle (4-week course) with a 3 week on/1 week off schedule. The treatment period will last for up to 24 Cycles followed by a 30-day Safety Follow-Up period.
A partial response was defined as PN decrease ≥20% compared to baseline using centrally read MRI volumetric analysis.
The major efficacy outcome measure was confirmed objective response rate (ORR), defined as the percentage of patients with complete response (disappearance of the target PN) or confirmed partial response (≥20% reduction in PN volume confirmed at a subsequent tumor assessment within 2-6 months during the 24-cycle treatment phase). Responses were assessed by blinded independent central review (BICR) using volumetric magnetic resonance imaging (MRI) analysis per Response Evaluation in Neurofibromatosis and Schwannomatosis (REiNS) criteria. A secondary efficacy objective was to determine the duration of response for patients who achieved a confirmed objective response.

[3] = geometric least squares mean ratio, food effect

Structure (SMILES): O=C(NOC[C@H](O)CO)c1ccc(F)c(F)c1Nc1ccc(I)cc1F (single isomer, unassigned) [mirdametinib]
- Tmax [median (range)] ([1]; Capsule): Capsule: 1.08 (0.00-4.17) hours post dose
- Excretion: radioactivity in feces ([1]; In feces): In feces: 27%
- Excretion: radioactivity in urine ([1]; In urine): In urine: 68%
- Excretion: unchanged mirdametinib in urine ([1]; In urine): In urine: 0.7%
- Excretion: unchanged mirdametinib in urine and feces ([1]; In urine and feces): In urine and feces: 9%
- Tmax [median (range)] ([1]; Tablet): Tablet: 0.83 (0.42-3.02) hours post dose
- Food effect [GMR % (90% CI)] AUCinf [1, 3]: 93% (90%, 96%)
- Food effect [GMR % (90% CI)] Cmax [1, 3]: 57% (54%, 61%)
- Time to steady-state ([1]; in vivo): Approximately 6 days
- Confirmed Complete Response, n (%) ([2]; Adult (N = 58)): 0 n (%)
- Confirmed Objective Response Rate per REiNS criteria by BICR, n (%) ([2]; Adult (N = 58)): 24 (41) n (%)
- Confirmed Partial Response, n (%) ([2]; Adult (N = 58)): 24 (41) n (%)
- DoR ≥12 months ([2]; Adult responders): 18 (75%)
- Confirmed Complete Response, n (%) ([2]; Pediatric (N = 56)): 0 n (%)
- Confirmed Objective Response Rate per REiNS criteria by BICR, n (%) ([2]; Pediatric (N = 56)): 29 (52) n (%)
- Confirmed Partial Response, n (%) ([2]; Pediatric (N = 56)): 29 (52) n (%)
- DoR ≥12 months ([2]; Pediatric responders): 22 (76%)
- median time to onset of response ([2]; adult cohort (range: 4.0 months to 19.0 months)): 7.8 months
- ORR also considering confirmed objective responses after cycle 24 ([2]; adults (95% CI: 32, 59)): 45%
- median time to onset of response ([2]; pediatric cohort (range: 4.1 months to 18.8 months)): 7.9 months
- ORR also considering confirmed objective responses after cycle 24 ([2]; pediatric patients (95% CI: 40, 67)): 54%
